The values that follow come from US11433053B2, “LSD1 inhibitor and preparation method and application thereof” (CSPC ZHONGQI PHARMACEUTICAL TECHNOLOGY (SHIJIAZHUANG) CO., …, priority 2017, dated 2022).

The target of one test is human LSD1 (Homo sapiens (Human), UniProt O60341). Kind of test: Evaluation of enzyme activity: LSD1 fluorescence coupling enzyme assay (HRP/Amplex Red). Format: biochemical. The note with it: human LSD1, histone H3(1-21)K4me2 peptide 10 μM, 30 min pre-incubation. The method, boiled down: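 Human LSD1 preincubated 30 min with compound, then reacted with H3(1-21)K4me2 peptide (10 μM). FAD-dependent H2O2 detected via HRP/Amplex Red fluorescence (Ex/Em 535/590). Ten-dose, 3-fold dilutions in duplicate from 10 μM gave IC50s, binned into activity classes.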

A further test concerns the target hERG potassium channel (Homo sapiens (Human), UniProt Q12809). Kind of test: Assay on inhibiting hERG potassium channel (automatic patch clamp, CHO-hERG cells). The note with it: Qpatch, max test concentration 40 μM. It is filed as cell-based. The protocol:
Experimental purpose: Using automatic patch clamp method to detect the effect of the sample to be tested on hERG potassium channel.
4.1.1 CHO-hERG cells were cultured in 175 cm^2 flasks. When the cell density was increased to 60-80%, the culture solution was removed and the resultant was washed with 7 mL PBS (Phosphate Buffered Saline phosphate buffer), then 3 mL of digestive juice was added to digest.
4.1.2 After the digestion finished, 7 mL culture solution was added to neutralize. Then centrifuge, aspirate the supernatant, and then resuspend by adding 5 mL culture solution to ensure a cell density of 2-5×10^6/mL.
Single cell high impedance sealing and whole cell pattern formation were all done automatically by the Qpatch instrument. After the whole-cell recording mode was obtained, the cells were clamped at −80 mV. 50-Millisecond−50 mV preamplifier was applied prior to a 5 second+40 mV depolarization stimulus. Then the voltage was repolarized to −50 mV for 5 seconds and back to −80 mV. This voltage stimulation was applied every 15 seconds, and the extracellular fluid was recorded over 5 minutes after 2 minutes' record, and then the administration process was started. The compound concentration was started from the lowest test concentration, and each test concentration was given for 2.5 minutes. Test at least 3 cells (n≥3) for each concentration.
4.4.1 Dilute 20 mM mother liquor of the compound with extracellular fluid 5 μL of 20 mM mother liquor of the compound was added to 2495 μL extracellular fluid, and the mixture was 500-fold diluted to 40 μM. Then 0.2% DMSO in extracellular fluid was 3-fold diluted sequentially to obtain the final concentration to be tested.
4.4.2 The max test concentration was 40 μM, 6 concentrations were 40, 13.33, 4.44, 1.48, 0.49, and 0.16 μM respectively.
Experimental data was analyzed by XLFit software.
For orientation: The hERG channel carries a current that helps repolarise heart muscle cells.

Another test relates to H1417 cells. Kind of test: Cell proliferation inhibitory activity on H1417 cells (CellTiter-Glo, 10 days). It is filed as cell-based, human. The note with it: Homo sapiens; for IC50: NCI-H1417, 240 h, H1417 cells, 10 days incubation; for Emax: NCI-H1417, H1417 cells, highest percentage inhibition of cell viability, read-out: Maximum inhibition percentage (%). An outline of the steps:
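H1417 cells in RPMI 1640 with fetal bovine serum were treated with 10-point 3-fold compound dilutions for 10 days. Viability was read by CellTiter-Glo luminescence. IC50 came from a four-parameter fit of percent inhibition, and maximal inhibition was also categorized.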
In general terms: ATP-based viability assays read luminescence as a measure of living cells.

Test [1] has as its system human small cell lung cancer NCI-H1417 cells subcutaneous xenograft tumor. Kind of test: In vivo pharmacodynamic study, NCI-H1417 subcutaneous xenograft tumor CB-17 SCID mouse model. Set-up: species or system CB-17 SCID mice. As to conditions: PO, QD. The procedure:
The purpose of this experiment was to investigate the efficacy of some of the compounds of the present invention in the in vivo xenograft tumor of human small cell lung cancer NCI-H1417 cells in a CB-17 SCID mouse model.
Week age and weight: 6-8 weeks old, weight 18-23 g
Human small cell lung cancer NCI-H1417 cells were cultured in vitro in a single layer cultured in RPMI-1640 medium (Sigma-aldrich, R0883), supplemented with 10% fetal bovine serum and cultured at 37° C. 5% CO2. When the cell saturation is 80%-90%. The cells are harvested, counted, and inoculated.
0.2 mL of 10×10^6 (NCI-H1417 cells were subcutaneously inoculated into the right back of each mouse (PBS:Matrigel=1:1). After 21 days of tumor inoculation, group administration was started when the average volume reached 107 mm^3.
The experimental solvent was the 10% hydroxypropyl-β-cyclodextrin solution. The preparation method was as follows: 100 g of hydroxypropyl-β-cyclodextrin was weighed into a 1000 mL jar, 800 mL of ultrapure water was added, stirred overnight until completely dissolved, and then made up to 1000 mL. The test substance was dissolved in a solvent, and was prepared into a uniform solution of a certain concentration and stored at 4° C.
The experimental indicator is to investigate whether tumor growth is inhibited, delayed or cured. Tumor diameters were measured twice a week using vernier calipers. The tumor volume is calculated as: V=0.5a×b^2, and a and b represent the long and short diameters of the tumor, respectively.
The antitumor effect of the compound was evaluated by TG (%). TGI (%), reflecting the tumor growth inhibition rate. TGI (%) calculation: TGI (%)=[1−(the average tumor volume at the end of a treatment group−the average tumor volume at the beginning of the treatment group)/(the average tumor volume at the end of the treatment of the solvent control group−The average tumor volume at the start of treatment in the solvent control group) was ×100%. Solvent control: Vehicle (10% hydroxypropyl-β-cyclodextrin solution).

[2] abbreviates: 1.5 mg/kg, day 27 after administration.
[3] abbreviates: 1.5 mg/kg, day 28 after administration.
Where [4] appears, read: 5 mg/kg, day 28 after administration.

For orientation: IC50 means the midpoint of a concentration-inhibition curve.

Chain of hERG potassium channel (Q12809 whole entry): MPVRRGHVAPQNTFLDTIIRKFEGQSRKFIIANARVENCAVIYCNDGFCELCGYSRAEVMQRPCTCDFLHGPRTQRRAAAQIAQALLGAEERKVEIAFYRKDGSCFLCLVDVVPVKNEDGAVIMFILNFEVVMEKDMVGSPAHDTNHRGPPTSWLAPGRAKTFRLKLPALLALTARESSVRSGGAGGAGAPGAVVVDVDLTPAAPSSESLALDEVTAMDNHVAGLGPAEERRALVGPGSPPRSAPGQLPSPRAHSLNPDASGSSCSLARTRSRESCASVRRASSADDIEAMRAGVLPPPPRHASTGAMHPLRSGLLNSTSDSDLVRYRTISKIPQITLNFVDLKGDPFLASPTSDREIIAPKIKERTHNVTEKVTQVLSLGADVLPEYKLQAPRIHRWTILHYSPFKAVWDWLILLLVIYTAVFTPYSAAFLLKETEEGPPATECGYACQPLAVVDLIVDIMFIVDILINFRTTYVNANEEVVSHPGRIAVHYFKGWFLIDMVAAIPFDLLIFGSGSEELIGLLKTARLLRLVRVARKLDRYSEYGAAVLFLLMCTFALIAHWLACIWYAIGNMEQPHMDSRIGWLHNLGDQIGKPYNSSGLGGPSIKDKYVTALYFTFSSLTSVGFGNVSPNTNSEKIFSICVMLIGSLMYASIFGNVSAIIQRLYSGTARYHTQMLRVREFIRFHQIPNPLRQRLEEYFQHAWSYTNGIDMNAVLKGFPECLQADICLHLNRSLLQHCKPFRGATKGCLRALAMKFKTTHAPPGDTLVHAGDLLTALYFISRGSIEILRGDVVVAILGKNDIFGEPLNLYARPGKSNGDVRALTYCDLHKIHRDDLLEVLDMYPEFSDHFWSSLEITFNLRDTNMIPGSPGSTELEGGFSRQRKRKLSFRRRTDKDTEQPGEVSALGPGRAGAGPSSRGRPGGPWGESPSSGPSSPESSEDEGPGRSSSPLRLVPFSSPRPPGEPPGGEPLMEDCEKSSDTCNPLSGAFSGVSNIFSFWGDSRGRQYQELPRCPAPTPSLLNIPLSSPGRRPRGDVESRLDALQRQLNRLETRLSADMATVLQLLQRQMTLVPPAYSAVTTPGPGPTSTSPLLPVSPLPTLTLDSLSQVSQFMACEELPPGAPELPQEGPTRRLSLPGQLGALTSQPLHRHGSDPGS

As to `N[C@H]1CC[C@H](c2nc(C3(CN[C@@H]4C[C@H]4c4ccccc4)CC3)no2)CC1` [Example 144], the concentration for half-maximal inhibition (IC50) at human LSD1 was ≤ 50 nM. For the same compound, the IC50 against hERG potassium channel is > 40000 nM. In the test on H1417 cells, the IC50 fell in the range of 100 to 500 nM and the Emax lay in the range of 90 to 100%. Also, in test [1] (setting [2]), the “TGI (%)” value is given as 83.5% and the “Tumor volume (mm^3) (Day 27)” value is 180 ± 21 mm^3.
`N[C@H]1CC[C@@H](c2nc(C3(CN[C@@H]4C[C@H]4c4ccccc4)CC3)no2)CC1` [Example 145]: the IC50 against human LSD1 was ≤ 50 nM. The IC50 against hERG potassium channel is > 40000 nM. Also, in the test with H1417 cells, the IC50 is 100 to 500 nM and the Emax was 70 to 90%. In test [1] (setting [2]), the “TGI (%)” value is 66.6% and the “Tumor volume (mm^3) (Day 27)” value worked out at 250 ± 40 mm^3.
Take `N[C@H]1CC[C@H](c2cc(C3(CN[C@@H]4C[C@H]4c4ccccc4)CC3)no2)CC1` [Example 241]: the IC50 on human LSD1 is ≤ 50 nM; against hERG potassium channel it was > 40000 nM; in the test on H1417 cells, ≤ 100 nM. For the same compound, the Emax with H1417 cells lay within 70 to 90%. Also, the “TGI (%)” value in test [1] (setting [3]) is 66%; in test [1] (setting [4]) it was 110%. Moreover, the results for the “Tumor volume (mm^3) (Day 28)” value in test [1] (setting [3]) and in test [1] (setting [4]) were 251 ± 35 mm^3 and 61 ± 10 mm^3, respectively.
